Data taken from the supplement of paper PMC10307832.

Experiments:
Experiment in all cases: relative viability (nuclei count vs DMSO), 5 days (fraction); higher = more cells survive
GSK126 + Bortezomib = compound: CC[C@H](C)N1C=C(C2=C(C=C(C=C21)C3=CN=C(C=C3)N4CCNCC4)C(=O)NCC5=C(C=C(NC5=O)C)C)C [GSK126] + CC(C)C[C@H](NC(=O)[C@H](Cc1ccccc1)NC(=O)c1cnccn1)B(O)O [Bortezomib] (partner 0.002 µM)
How it was run: (§1)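 Lung cancer cell lines, seeded in 1536-well plates, were treated the following day by pin tool with a single drug or with five library-drug doses (not always all listed) in √10 steps on top of a fixed anchor-drug dose. Cells were fixed and nuclei stained in one step after 5 days, and nuclei were counted. Relative viability is the nuclei count for treated wells divided by that for vehicle wells, reported as medians of duplicate plates.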

GSK126 + Crizotinib = compound: CC[C@H](C)N1C=C(C2=C(C=C(C=C21)C3=CN=C(C=C3)N4CCNCC4)C(=O)NCC5=C(C=C(NC5=O)C)C)C [GSK126] + C[C@@H](Oc1cc(-c2cnn(C3CCNCC3)c2)cnc1N)c1c(Cl)ccc(F)c1Cl [Crizotinib] (partner 1 µM)
How it was run: as §1

MLN4924 + Trametinib = compound: NS(=O)(=O)OC[C@@H]1C[C@@H](n2ccc3c(N[C@H]4CCc5ccccc54)ncnc32)C[C@@H]1O [MLN4924] + CC(=O)Nc1cccc(-n2c(=O)n(C3CC3)c(=O)c3c(Nc4ccc(I)cc4F)n(C)c(=O)c(C)c32)c1 [Trametinib] (partner 0.02 µM)
How it was run: as §1

MLN4924 + Pictilisib = compound: NS(=O)(=O)OC[C@@H]1C[C@@H](n2ccc3c(N[C@H]4CCc5ccccc54)ncnc32)C[C@@H]1O [MLN4924] + CS(=O)(=O)N1CCN(Cc2cc3nc(-c4cccc5[nH]ncc45)nc(N4CCOCC4)c3s2)CC1 [Pictilisib] (partner 1 µM)
How it was run: as §1

Cell Line: UMC-11
- relative viability (GSK126 + Bortezomib; first compound 0.08 µM): 0.842
- relative viability (GSK126 + Bortezomib; first compound 0.253 µM): 0.628
- relative viability (GSK126 + Bortezomib; first compound 0.8 µM): 0.747
- relative viability (GSK126 + Bortezomib; first compound 2.53 µM): 0.643
- relative viability (GSK126 + Bortezomib; first compound 8 µM): 0.895
- relative viability (GSK126 + Crizotinib; first compound 0.08 µM): 0.723
- relative viability (GSK126 + Crizotinib; first compound 0.253 µM): 0.689
- relative viability (GSK126 + Crizotinib; first compound 0.8 µM): 0.604
- relative viability (GSK126 + Crizotinib; first compound 2.53 µM): 0.523
- relative viability (GSK126 + Crizotinib; first compound 8 µM): 0.525
- relative viability (MLN4924 + Trametinib; first compound 0.04 µM): 0.487
- relative viability (MLN4924 + Trametinib; first compound 0.1265 µM): 0.367
- relative viability (MLN4924 + Trametinib; first compound 0.4 µM): 0.253
- relative viability (MLN4924 + Trametinib; first compound 1.265 µM): 0.115
- relative viability (MLN4924 + Trametinib; first compound 4 µM): 0.142
- relative viability (MLN4924 + Pictilisib; first compound 0.04 µM): 0.593
- relative viability (MLN4924 + Pictilisib; first compound 0.1265 µM): 0.357
- relative viability (MLN4924 + Pictilisib; first compound 0.4 µM): 0.267
- relative viability (MLN4924 + Pictilisib; first compound 1.265 µM): 0.14
- relative viability (MLN4924 + Pictilisib; first compound 4 µM): 0.14
